# Reference: patent US10407409B2, “6-(5-hydroxy-1H-pyrazol-1-yl)nicotinamide inhibitors of PHD” (Takeda Pharmaceutical Company Limited, priority 2013, dated 2019)
# Legend:
# [1] = biological target: PHD2 enzyme (residues 181-417) (Homo sapiens (Human), UniProt Q9GZT9); assay: Inhibition of PHD enzyme (LC/MS peptide hydroxylation assay); type: biochemical; settings: PHD2 (residues 181-417) 5 nM, 60 min pre-incubation, -log(IC50), IC50 molar; for IC50: read-out: PHD Inhibition (pIC50) (converted)
# Description: Example A Inhibition of PHD Enzyme
# The IC50 values for the PHD2 enzyme (residues 181-417) were determined by mixing increasing amounts of inhibitor with a fixed amount of enzyme (5 nM, final concentration) and Biotin labeled peptide (Biotin-Asp-Leu-Glu-Met-Leu-Ala-Pro-Tyr-Ile-Pro-Met-Asp-Asp-Asp-Phe-Gln-Leu, 1 uM final concentration) and 2-Oxyglutarate (2 uM final concentration) in 50 mM HEPES, 50 mM KCl, 0.5 mM TCEP, 2 uM FeCl2, 0.1 mg/ml BSA, at pH 7.3. The reaction was conducted by pre-incubating the enzyme in the presence of inhibitor for 60 min at room temperature. The activity of the free enzyme was measured by adding the peptide, the 2-Oxoglutarate (see above for final concentrations), and Ascorbic Acid (1 mM final concentration). The enzymatic activity was quenched after 60 min by adding an excess of a tight binding inhibitor to the assay mixture. The amount of product released was measured by using a LC/MS system (Agilent HPLC with Applied Biosystems API3000 Mass Spectrometer). Data were analyzed using the classical isotherm equation for the determination of IC50 values and are pIC50, i.e., −log(IC50), where IC50 is molar concentration and are reported as pIC50, i.e., −log(IC50), where IC50 is molar concentration.
# [2] = test system: HIF1a protein in H9c2 rat cardiomyocytes; assay: Cell-based HIF-alpha stabilization assay (inhibition of PHD in cells); settings: 24 hrs compound incubation, HIF1a protein by ELISA; for EC50: Rattus norvegicus, H9c2, 24 h, read-out: Inhibition of PHD in cells (pEC50) (converted)
# Description: Example B Inhibition of PHD in Cells
# PHD Inhibition is Determined Using (Secondary Assay)
# Cell-Based HIF-Alpha Stabilization Assay:
# H9c2 rat cardiomyocytes (ATCC) were seeded in 96-well tissue culture microplates and cultured for 24 hours prior to addition of compounds (11 point range of serial dilutions) or dimethylsulfoxide vehicle. After 24 hrs of compound incubation, whole cell extracts were prepared by lysing cells in cell extraction buffer containing protease and phosphatase inhibitors (Meso-Scale Discovery). HIF1a protein content was assessed by ELISA (Meso-Scale Discovery) and expressed as a % relative to the maximum response obtained from the positive control, desferrioxamine (Sigma-Aldrich). Compound EC50s were obtained by curve-fitting using XLfit4 MicroSoft Excel curve-fitting software. Compound EC50pos were obtained using XLfit4 to calculate the compound concentration that results in 50% of the desferrioxamine maximum response.
# PHD2 enzyme (residues 181-417), sequence (Q9GZT9 181-417): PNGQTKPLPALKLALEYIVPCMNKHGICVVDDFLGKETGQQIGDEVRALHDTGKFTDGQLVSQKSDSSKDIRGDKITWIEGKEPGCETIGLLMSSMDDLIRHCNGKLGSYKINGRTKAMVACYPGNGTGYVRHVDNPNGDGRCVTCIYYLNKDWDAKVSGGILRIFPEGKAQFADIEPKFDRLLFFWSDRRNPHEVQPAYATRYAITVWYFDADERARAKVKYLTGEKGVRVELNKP
SMILES,IC50 [1] [nM],EC50 [2] [nM],PHD Inhibition (pIC50) [1],Inhibition of PHD in cells (pEC50) [2]
"Cc1cc(C#N)ccc1-c1cnn(-c2ccc(C(=O)N3CCN4CCCC4C3)cn2)c1O (racemic) [Example 288, (+/−)-4-(5-hydroxy-1-(5-(octahydropyrrolo[1,2-a]pyrazine-2-carbonyl)pyridin-2-yl)-1H-pyrazol-4-yl)-3-methylbenzonitrile]",3.31,575,–,–
"CCN(C)CC1CCN(C(=O)c2ccc(-n3ncc(-c4ccc(C#N)cc4C)c3O)nc2)C1 (racemic) [Example 295, (+/−)-4-(1-(5-(3-((ethyl(methyl)amino)methyl)pyrrolidine-1-carbonyl)pyridin-2-yl)-5-hydroxy-1H-pyrazol-4-yl)-3-methylbenzonitrile]",14.1,339,–,–
"CC(NC(=O)c1ccc(-n2ncc(-c3ccc(C#N)cc3)c2O)nc1)C1CC1 (stereo in doubt) [Example 260, (S)-6-(4-(4-cyanophenyl)-5-hydroxy-1H-pyrazol-1-yl)-N-(1-cyclopropylethyl)nicotinamide]",–,–,7.17,6.23
"Cc1cc(C#N)ccc1-c1cnn(-c2ccc(C(=O)N3CCCC(N(C)C4CC4)C3)cn2)c1O (stereo in doubt) [Example 386, (S)-4-(1-(5-(3-(cyclopropyl(methyl)amino)piperidine-1-carbonyl)pyridin-2-yl)-5-hydroxy-1H-pyrazol-4-yl)-3-methylbenzonitrile]",–,–,8.23,6.15
"COc1cc(-c2cnn(-c3ccc(C(=O)NCc4ccccc4)cn3)c2O)ccn1 [Example 2, N-benzyl-6-(5-hydroxy-4-(2-methoxypyridin-4-yl)-1H-pyrazol-1-yl)nicotinamide]",–,1260,7.03,–
"COCC1(NC(=O)c2ccc(-n3ncc(-c4ccnc(OC)c4)c3O)nc2)CCCC1 [Example 3, 6-(5-hydroxy-4-(2-methoxypyridin-4-yl)-1H-pyrazol-1-yl)-N-(1-(methoxymethyl)cyclopentyl)nicotinamide]",–,724,7.3,–
"COc1cc(-c2cnn(-c3ccc(C(=O)NC4(C)CC4)cn3)c2O)ccn1 [Example 4, 6-(5-hydroxy-4-(2-methoxypyridin-4-yl)-1H-pyrazol-1-yl)-N-(1-methylcyclopropyl)nicotinamide]",–,525,6.92,–
"COc1cc(-c2cnn(-c3ccc(C(=O)NC(C)C)cn3)c2O)ccn1 [Example 5, 6-(5-hydroxy-4-(2-methoxypyridin-4-yl)-1H-pyrazol-1-yl)-N-isopropylnicotinamide]",–,562,7.01,–
"COc1cc(-c2cnn(-c3ccc(C(=O)NCC(C)C)cn3)c2O)ccn1 [Example 6, 6-(5-hydroxy-4-(2-methoxypyridin-4-yl)-1H-pyrazol-1-yl)-N-isobutylnicotinamide]",–,955,7.02,–
"COc1cc(-c2cnn(-c3ccc(C(=O)NCCOC(C)C)cn3)c2O)ccn1 [Example 7, 6-(5-hydroxy-4-(2-methoxypyridin-4-yl)-1H-pyrazol-1-yl)-N-(2-isopropoxyethyl)nicotinamide]",–,1000,7.03,–
"CCCNC(=O)c1ccc(-n2ncc(-c3ccnc(OC)c3)c2O)nc1 [Example 8, 6-(5-hydroxy-4-(2-methoxypyridin-4-yl)-1H-pyrazol-1-yl)-N-propylnicotinamide]",–,603,7.03,–
"COc1cc(-c2cnn(-c3ccc(C(=O)N[C@H]4CC[C@@H](OC)CC4)cn3)c2O)ccn1 [Example 9, 6-(5-hydroxy-4-(2-methoxypyridin-4-yl)-1H-pyrazol-1-yl)-N-((1s,4s)-4-methoxycyclohexyl)nicotinamide]",–,525,7.5,–
"CC[C@H](C)NC(=O)c1ccc(-n2ncc(-c3ccnc(OC)c3)c2O)nc1 [Example 10, (S)—N-(sec-butyl)-6-(5-hydroxy-4-(2-methoxypyridin-4-yl)-1H-pyrazol-1-yl)nicotinamide]",–,676,7.09,–
"CCOCCCNC(=O)c1ccc(-n2ncc(-c3ccnc(OC)c3)c2O)nc1 [Example 12, N-(3-ethoxypropyl)-6-(5-hydroxy-4-(2-methoxypyridin-4-yl)-1H-pyrazol-1-yl)nicotinamide]",–,661,7.44,–
"COc1cc(-c2cnn(-c3ccc(C(=O)NC4CCC4)cn3)c2O)ccn1 [Example 13, N-cyclobutyl-6-(5-hydroxy-4-(2-methoxypyridin-4-yl)-1H-pyrazol-1-yl)nicotinamide]",–,417,7.15,–
"COCC1(CNC(=O)c2ccc(-n3ncc(-c4ccnc(OC)c4)c3O)nc2)CC1 [Example 14, 6-(5-hydroxy-4-(2-methoxypyridin-4-yl)-1H-pyrazol-1-yl)-N-((1-(methoxymethyl)cyclopropyl)methyl)nicotinamide]",–,871,7.27,–
"COc1cc(-c2cnn(-c3ccc(C(=O)NC4CCOCC4)cn3)c2O)ccn1 [Example 15, 6-(5-hydroxy-4-(2-methoxypyridin-4-yl)-1H-pyrazol-1-yl)-N-(tetrahydro-2H-pyran-4-yl)nicotinamide]",–,646,7.21,–
"COc1cc(-c2cnn(-c3ccc(C(=O)N[C@@H](C)C4CCOCC4)cn3)c2O)ccn1 [Example 16, (S)-6-(5-hydroxy-4-(2-methoxypyridin-4-yl)-1H-pyrazol-1-yl)-N-(1-(tetrahydro-2H-pyran-4-yl)ethyl)nicotinamide]",–,200,7.38,–
"COCC(C)(C)NC(=O)c1ccc(-n2ncc(-c3ccnc(OC)c3)c2O)nc1 [Example 17, 6-(5-hydroxy-4-(2-methoxypyridin-4-yl)-1H-pyrazol-1-yl)-N-(1-methoxy-2-methylpropan-2-yl)nicotinamide]",–,347,7.03,–
"CCCN1CCC(NC(=O)c2ccc(-n3ncc(-c4ccnc(OC)c4)c3O)nc2)CC1 [Example 24, 6-(5-hydroxy-4-(2-methoxypyridin-4-yl)-1H-pyrazol-1-yl)-N-(1-propylpiperidin-4-yl)nicotinamide]",–,10700,7.04,–
"COc1cc(-c2cnn(-c3ccc(C(=O)NCCO)cn3)c2O)ccn1 [Example 25, 6-(5-hydroxy-4-(2-methoxypyridin-4-yl)-1H-pyrazol-1-yl)-N-(2-hydroxyethyl)nicotinamide]",–,4470,7.1,–
"COc1cc(-c2cnn(-c3ccc(C(=O)NCCCO)cn3)c2O)ccn1 [Example 26, 6-(5-hydroxy-4-(2-methoxypyridin-4-yl)-1H-pyrazol-1-yl)-N-(3-hydroxypropyl)nicotinamide]",97.7,3630,–,–
"CCCN1CCN(C(=O)c2ccc(-n3ncc(-c4ccc(C#N)cc4C)c3O)nc2)C[C@@H]1C [Example 374, (S)-4-(5-hydroxy-1-(5-(3-methyl-4-propylpiperazine-1-carbonyl)pyridin-2-yl)-1H-pyrazol-4-yl)-3-methylbenzonitrile]",–,100,–,–
"Cc1cc(C#N)ccc1-c1cnn(-c2ccc(C(=O)N3CCN(C)C[C@@H]3C)cn2)c1O [Example 391, (S)-4-(1-(5-(2,4-dimethylpiperazine-1-carbonyl)pyridin-2-yl)-5-hydroxy-1H-pyrazol-4-yl)-3-methylbenzonitrile]",–,1550,–,–
